Measurements published in paper PMC9124820, “In vitro evaluation of fenfluramine and norfenfluramine as victims of drug interactions” (Pharmacology Research & Perspectives, 2022).

Molecular target: T1, OAT3 (Homo sapiens, UniProt Q8TCC7)
T1 construct: host or cells: HEK293
T1 sequence (Q8TCC7 1-542): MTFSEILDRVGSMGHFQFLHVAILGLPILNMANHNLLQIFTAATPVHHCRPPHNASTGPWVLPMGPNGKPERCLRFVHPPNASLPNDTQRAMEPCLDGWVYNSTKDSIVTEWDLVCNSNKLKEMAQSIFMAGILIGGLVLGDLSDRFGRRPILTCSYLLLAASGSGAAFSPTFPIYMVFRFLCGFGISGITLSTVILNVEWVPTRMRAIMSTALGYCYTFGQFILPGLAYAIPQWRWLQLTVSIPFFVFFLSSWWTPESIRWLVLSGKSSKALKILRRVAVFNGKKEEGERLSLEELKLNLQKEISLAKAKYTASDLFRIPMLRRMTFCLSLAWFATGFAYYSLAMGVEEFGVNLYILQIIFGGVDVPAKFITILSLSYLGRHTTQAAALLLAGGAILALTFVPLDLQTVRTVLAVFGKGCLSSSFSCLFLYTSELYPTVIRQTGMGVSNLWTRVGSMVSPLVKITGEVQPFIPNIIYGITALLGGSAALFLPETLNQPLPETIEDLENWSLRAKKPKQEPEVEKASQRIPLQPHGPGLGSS
Experiment: Transporter substrate determination, uptake in HEK293-OAT3 cells
Assay type: in vitro ADME
Conditions: for Maximum Ratio (uptake in transporter‐expressing cells to empty‐vector control cells): HEK293‐OAT3, 0.1, 1, 10 µM, threshold ≥2‐fold; for substrate of the transporter: OAT3
Method: LC‐MS/MS analyses to assess metabolic stability and identify the transporter substrate were performed using an API 4000 QTRAP mass spectrometer (SCIEX, Framingham, MA) with electrospray ionization in positive mode. Chromatography was performed using an Atlantis dC18 analytical column (100 × 2.1 mm, 5 µm; Waters Corporation, Milford, MA). Mobile phases were 0.2% v/v formic acid in water and 0.2% v/v formic acid in acetonitrile. For metabolic stability experiments, FFA and metabolites were eluted at a flow rate of 0.6 mL/min, with a linear gradient of 20%−80% acetonitrile from 0.30−2.0 min. For transporter substrate experiments, the gradient was slightly modified to achieve suitable chromatography. The mass transitions monitored were 232.0 > 159.0 for FFA and 348.0 > 330.0 for 1ʹ‐OH‐midazolam‐d4 internal standard.
FFA and nFFA were evaluated as substrates of the transporters breast cancer resistance protein (BCRP), organic anion transporter (OAT)1, OAT3, organic cation transporter (OCT)2, MATE1, MATE2‐K, and P‐glycoprotein multidrug transporter (P‐gp; also known as MDR1 and ABCB1), according to published methods.[25], [26], [27], [28], [29] Madin‐Darby canine kidney (MDCKII)‐BCRP cells (Netherlands Cancer Institute, Amsterdam, Netherlands) or human embryonic kidney (HEK)293 cells transfected with other transporters (Sekisui Medical Co., Ltd., Tokyo, Japan) were used. Transporter‐transfected and control cells were incubated with FFA or nFFA (0.1, 1, or 10 μM), and the amount of FFA and nFFA accumulated in the cells was measured by LC‐MS/MS as described above. The accumulation of positive control substrates in the presence and absence of an inhibitor served as a positive control for transporter function. […] BCRP substrate determination was made by bi‐directional permeability across MDCKII‐BCRP and control cells cultured on 24‐well transwell plates. Incubation medium containing probe substrate was added. Ten minutes later, transepithelial electrical resistance (TEER) was recorded and cells were preincubated at 37 ± 2°C for 30−60 min before FFA or nFFA or positive control substrate with the solvent control or positive control inhibitor was added to the donor (apical) chamber. […] Samples containing FFA, nFFA, or probe substrate were mixed with internal standard and analyzed by LC‐MS/MS. […] An aliquot was added to 96‐well plate containing scintillation fluid that was analyzed by a MicroBeta^2 scintillation counter (Perkin Elmer, Waltham, MA). Protein concentration was determined by a bicinchoninic acid (BCA) protein assay according to the manufacturer’s protocol (Thermo Fisher Scientific, Waltham, MA). Non‐radiolabeled compounds were resuspended in a 50:50 v/v methanol:water solution containing internal standard and were analyzed by LC‐MS/MS. […]

CCNC(C)Cc1cccc(C(F)(F)F)c1 (racemic) [FFA, (RS)‐ethyl (α‐methyl‐3‐trifluoromethylphenethyl)amine]
Maximum Ratio (uptake in transporter‐expressing cells to empty‐vector control cells): 1.15 | substrate of the transporter: not substrates

CC(N)Cc1cccc(C(F)(F)F)c1.Cl (stereo not shown) [nFFA, 1‐(3‐(trifluoromethyl)phenyl)propan‐2‐amine hydrochloride]
Maximum Ratio (uptake in transporter‐expressing cells to empty‐vector control cells): 1.74 | substrate of the transporter: not substrates
